In patent US20250346592A1 (Celgene Corporation, priority 2022, published 2025):

Tests used:
hPAD4 enzyme [1] = biological target: T1, hPAD4 enzyme (Homo sapiens (Human), UniProt Q9UM07); assay: RFMS1 assay (RapidFire mass spectrometry, BAEE substrate); format: biochemical; conditions: 5 nM hPAD4, 250 μM BAEE, 30 min preincubation at 37° C., 90 min reaction; read-out: RFMS 1 IC50
How it was run: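 hPAD4 (5 nM) preincubated 30 min at 37° C. with compound, then 250 μM BAEE for 90 min at 37° C. in pH 7.5 HEPES buffer with 50 μM calcium, 1 mM DTT, 5 μM TPEN. TCA quench, phenyl glyoxal derivatisation; citrulline product measured by RapidFire MS, normalised to internal standard; IC50 values.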

hPAD4 enzyme [2] = biological target: T1, hPAD4 enzyme; assay: RFMS2 assay (RapidFire mass spectrometry, TSTGGRQGSHH peptide substrate); format: biochemical; conditions: 35 nM recombinant human PAD4, 500 μM TSTGGRQGSHH peptide, 30 minutes at room temperature; read-out: RFMS 2 IC50
How it was run: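 Recombinant human PAD4 (35 nM) with 500 μM TSTGGRQGSHH peptide in HEPES pH 7.4, 200 mM NaCl, 2 mM CaCl2, 5 mM DTT, 1.2% DMSO, 30 min at room temperature; 3-fold compound series, top 20 μM. Quenched with formic acid; substrate and citrullinated product quantified by RapidFire MRM mass spectrometry for IC50.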

T1 sequence (Q9UM07 whole entry): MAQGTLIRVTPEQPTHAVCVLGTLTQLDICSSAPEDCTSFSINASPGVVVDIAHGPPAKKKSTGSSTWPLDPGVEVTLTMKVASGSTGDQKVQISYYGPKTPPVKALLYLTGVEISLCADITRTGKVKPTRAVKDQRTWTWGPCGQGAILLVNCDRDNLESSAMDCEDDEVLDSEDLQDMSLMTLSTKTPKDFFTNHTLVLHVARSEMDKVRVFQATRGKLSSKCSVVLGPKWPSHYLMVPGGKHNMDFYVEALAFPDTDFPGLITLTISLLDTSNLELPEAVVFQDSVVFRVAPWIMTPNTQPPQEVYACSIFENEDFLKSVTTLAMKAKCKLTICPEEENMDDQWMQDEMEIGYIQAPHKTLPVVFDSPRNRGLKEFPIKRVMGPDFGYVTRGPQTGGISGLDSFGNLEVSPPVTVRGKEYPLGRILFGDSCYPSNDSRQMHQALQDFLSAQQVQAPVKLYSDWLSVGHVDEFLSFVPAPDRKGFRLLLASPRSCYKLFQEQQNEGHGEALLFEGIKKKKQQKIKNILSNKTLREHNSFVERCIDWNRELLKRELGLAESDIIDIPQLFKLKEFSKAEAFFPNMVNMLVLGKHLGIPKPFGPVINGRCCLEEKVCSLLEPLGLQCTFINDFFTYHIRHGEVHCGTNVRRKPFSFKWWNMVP

Row | IC50 (hPAD4 enzyme [1]) [µM] | IC50 (hPAD4 enzyme [2]) [µM] | Structure (SMILES)
1 | ≤ 0.01 | 0.011 to 0.1 | Cn1c(-c2cc3cccc(OCCn4ccnn4)c3n2CC2CC2)nc2cc3c(cc21)CCN(C[C@H](N)CF)C3=O [Example 181, (S)-2-(7-(2-(1H-1,2,3-triazol-1-yl)ethoxy)-1-(cyclopropylmethyl)-1H-indol-2-yl)-6-(2-amino-3-fluoropropyl)-1-methyl-1,6,7,8-tetrahydro-5H-imidazo[4,5-g]isoquinolin-5-one]
2 | ≤ 0.01 | 0.101 to 0.5 | C[C@H](Cn1ccnc1)Oc1cccc2cc(-c3nc4cc5c(cc4n3C)CCN(C[C@H](N)CF)C5=O)n(CC3CC3)c12 [Example 223, 2-(7-(((R)-1-(1H-imidazol-1-yl)propan-2-yl)oxy)-1-(cyclopropylmethyl)-1H-indol-2-yl)-6-((S)-2-amino-3-fluoropropyl)-1-methyl-1,6,7,8-tetrahydro-5H-imidazo[4,5-g]isoquinolin-5-one]
3 | 0.101 to 0.5 | 0.501 to 1 | COc1cccc2cc(-c3nc4cc5c(cc4n3C)CCN(C[C@H]3COCCN3)C5=O)n(CC3CC3)c12 [Example 231, (S)-2-(1-(cyclopropylmethyl)-7-methoxy-1H-indol-2-yl)-1-methyl-6-(morpholin-3-ylmethyl)-1,6,7,8-tetrahydro-5H-imidazo[4,5-g]isoquinolin-5-one]
4 | 0.011 to 0.1 | 0.011 to 0.1 | Cn1c(-c2cc3cccc(OCc4ccn[nH]4)c3n2CC2CC2)nc2cc3c(cc21)CCN(C[C@H](N)CF)C3=O [Example 174, (S)-2-(7-((1H-pyrazol-5-yl)methoxy)-1-(cyclopropyl-methyl)-1H-indol-2-yl)-6-(2-amino-3-fluoropropyl)-1-methyl-1,6,7,8-tetrahydro-5H-imidazo[4,5-g] isoquinolin-5-one]
5 | ≤ 0.01 | 0.011 to 0.1 | Cn1c(-c2cc3cccc(/C=C/Cn4ccnc4)c3n2CC2CC2)nc2cc3c(cc21)CCN(C[C@H](N)CF)C3=O [Example 227, (S,E)-2-(7-(3-(1H-imidazol-1-yl)prop-1-en-1-yl)-1-(cyclopropylmethyl)-1H-indol-2-yl)-6-(2-amino-3-fluoropropyl)-1-methyl-1,6,7,8-tetrahydro-5H-imidazo[4,5-g]isoquinolin-5-one]
6 | ≤ 0.01 | 0.011 to 0.1 | Cn1c(-c2cc3cccc(OC[C@@H]4CNC(=O)O4)c3n2CC2CC2)nc2cc3c(cc21)CCN(C[C@H](N)CF)C3=O [Example 206, (S)-5-(((2-(6-((S)-2-amino-3-fluoropropyl)-1-methyl-5-oxo-5,6,7,8-tetrahydro-1H-imidazo[4,5-g]isoquinolin-2-yl)-1-(cyclopropylmethyl)-1H-indol-7-yl)oxy)methyl)oxazolidin-2-one]
